In patent US9700632B2, “Dendrimers, conjugates and methods thereof” (Centre for BioSeparation Technology—VIT, priority 2012, dated 2017) one finds IC50 and inhibition data, which are given here for two compounds.

As a reminder, the IC50 is the concentration that gives 50% inhibition. One may read the inhibition as the share of the control response that was lost under treatment.

Test [1] concerns PC3 prostate cancer cells. Description: cells. The settings on record: Homo sapiens, PC-3, 48 h, read-out: IC50 PC3.
For test [2], the system named is HCT-15 human colon cancer cells. The test is described as follows: cells. The following applies: HCT-15, 48 h, read-out: IC50 HCT-15.
Experimental: Cells are incubated for 48 hr with different equivalent doxorubicin concentrations and IC50 values in terms of doxorubicin were calculated using MTT assay.
For the next test, the system named is PC3 cells. The test is described as follows: MTT cytotoxicity assay of lupeol and dendrimer-lupeol conjugates. The test is classed as cell-based. The following applies: Homo sapiens, PC-3, 48 h, read-out: percentage inhibition (cytotoxic effect, MTT). The procedure: Human prostate cancer cells (PC-3 cells) are obtained from NCCS, Pune, India. The cells are grown in RPMI 1640 medium supplemented with 10% of bovine fetal serum and antibiotics (100 IU of penicillin/[…] of streptomycin). The cells are maintained in a 25 cm^2 T-flask and incubated at 37° C. under 5% CO2 in a humidified atmosphere. The cell viability is measured by staining the cells with trypan blue and counted in a haemocytometer under a light microscope.
The assay is performed in triplicates.
The cytotoxicity is quantitatively estimated by a non-radioactive, colorimetric assay system using a tetrazolium salt, 3-[4,5-dimethylthiazol-2-yl]-2,5-diphenil-tetrazolium bromide (MTT).
The cytotoxic effect of lupeol and the dendrimer lupeol conjugate is determined using PC3 cells. […] Doxorubicin is used as positive control for each experiment. […] This clearly showcases that the increase in cytotoxic activity of the dendrimer-lupeol conjugate is not due to the dendrimer or lupeol alone but because of the conjugate of dendrimer and lupeol.

≈ marks a conversion by molar mass, not a printed value.

As for `COc1cccc2c1C(=O)c1c(O)c3c(c(O)c1C2=O)C[C@@](O)(C(=O)CO)C[C@@H]3O[C@H]1C[C@H](N)[C@H](O)[C@H](C)O1` [Free doxorubicin, doxorubicin], the figures for the IC50 in test [1] and in test [2] were 5.13 µg/mL (≈ 9.45 µM) and 4.77 µg/mL (≈ 8.78 µM), respectively. As for `C=C(C)[C@@H]1CC[C@]2(C)CC[C@]3(C)[C@H](CC[C@@H]4[C@@]5(C)CC[C@H](O)C(C)(C)[C@@H]5CC[C@]43C)[C@@H]12` [free lupeol, lupeol], the inhibition at 10 µg/mL in the test on PC3 cells was determined as 7.74%.
